{"source": "patent US20200147085A1", "about": "“COMPOSITIONS AND METHODS FOR TREATMENT OF PSYCHIATRIC DISORDERS” (priority 2007, published 2020)", "origin": "cited, not measured here", "key": {"[1]": {"conditions": "healthy controls, single oral dose of 400 mg of SAM"}, "[2]": {"conditions": "parenterally administered SAM"}, "healthy volunteers": {"test_system": "healthy volunteers", "conditions": "daily iv infusion for 7 days; not supine"}, "[3]": {"test_system": "chronic renal failure patients", "conditions": "4 grams daily, with 5 mg folate and 50 mg pyridoxine daily; not fasting levels"}, "[4]": {"conditions": "rats, intraperitoneal"}, "schizophrenic patients": {"test_system": "schizophrenic patients", "conditions": "10-20 grams/day"}}}
{"smiles": "C[S+](CC[C@H](N)C(=O)O)C[C@H]1O[C@@H](n2cnc3c(N)ncnc32)[C@H](O)[C@@H]1O", "note": "(stereo partly drawn) [SAM, S-adenosylmethionine]", "values": [{"measurement": "half-life of SAM", "setting": "[1]", "result": "1.7 ± 0.3", "unit": "h"}, {"measurement": "SAM levels in cerebral spinal fluid", "setting": "[2]", "result": "about 130 % of controls"}, {"measurement": "decrease in standing heart rate", "setting": "healthy volunteers", "result": 6, "unit": "beats/minute"}]}
{"smiles": "C[N+](C)(C)CC(=O)[O-]", "note": "[betaine, trimethylglycine]", "values": [{"measurement": "decrease of post-methionine loading homocysteine levels", "setting": "[3]", "result": 18, "unit": "%"}]}
{"smiles": "CSCC[C@H](N)C(=O)O", "note": "[methionine, L-methionine]", "values": [{"measurement": "SAM in brain", "setting": "[4]", "result": "about 130 % of controls"}, {"measurement": "schizophrenic patients with worsened psychosis", "setting": "schizophrenic patients", "result": "about 40%"}]}
